Results published in patent publication US20260109690A1, “HDAC6 INHIBITORS AND METHOD OF THEIR USE” (Baerenkraft Therapeutics, LLC., priority 2024, published 2026).

Tests used:
HDAC4 = HDAC4 (Homo sapiens, UniProt P56524); experiment: HDAC selectivity panel: HDAC4; assay type: biochemical
HDAC7 = target: T1, HDAC7 (Homo sapiens, UniProt Q8WUI4); experiment: HDAC selectivity panel: HDAC7; assay type: biochemical
T1 sequence (Q8WUI4 1-952): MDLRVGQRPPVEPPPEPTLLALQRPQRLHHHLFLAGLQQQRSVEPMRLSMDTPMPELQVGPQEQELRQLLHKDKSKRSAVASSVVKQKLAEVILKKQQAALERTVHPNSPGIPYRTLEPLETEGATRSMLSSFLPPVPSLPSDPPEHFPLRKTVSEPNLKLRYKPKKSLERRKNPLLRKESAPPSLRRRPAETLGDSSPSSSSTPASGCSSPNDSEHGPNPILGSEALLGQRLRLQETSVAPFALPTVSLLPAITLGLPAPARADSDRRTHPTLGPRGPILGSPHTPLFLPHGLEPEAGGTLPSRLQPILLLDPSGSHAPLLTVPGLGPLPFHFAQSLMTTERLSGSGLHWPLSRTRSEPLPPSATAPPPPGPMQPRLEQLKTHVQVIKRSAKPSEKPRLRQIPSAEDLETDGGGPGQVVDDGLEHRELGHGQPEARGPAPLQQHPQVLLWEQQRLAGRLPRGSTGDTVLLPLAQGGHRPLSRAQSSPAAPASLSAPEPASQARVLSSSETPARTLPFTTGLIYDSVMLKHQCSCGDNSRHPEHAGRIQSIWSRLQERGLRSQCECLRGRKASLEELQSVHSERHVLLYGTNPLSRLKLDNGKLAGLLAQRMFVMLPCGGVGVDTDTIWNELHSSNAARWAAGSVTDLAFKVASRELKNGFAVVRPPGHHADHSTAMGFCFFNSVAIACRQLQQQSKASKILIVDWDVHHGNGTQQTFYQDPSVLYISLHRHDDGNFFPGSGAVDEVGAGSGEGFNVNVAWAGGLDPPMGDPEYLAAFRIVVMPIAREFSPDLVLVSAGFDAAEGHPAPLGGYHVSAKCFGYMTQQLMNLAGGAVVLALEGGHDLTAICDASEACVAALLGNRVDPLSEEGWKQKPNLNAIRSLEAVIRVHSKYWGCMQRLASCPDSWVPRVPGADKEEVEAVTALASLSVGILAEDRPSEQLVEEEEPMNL

[1] = Tg2576 study: body weight; assay type: in vivo; conditions: G3 Tg2576 mice, 50 mg/kg (80 mg/kg from day 36) p.o., in g (unit assumed)
Method: Compound I-16 (free base; purity of 98.77%) was tested in a vehicle of PEG 400 (30%), Tween 80 (2%), and water (68%) at a concentration of […]. Dose formulations were prepared every day prior to dose administration. Oral dosages of 50 mg/kg were used unless otherwise indicated. 80 mg/kg doses were similarly prepared at a concentration of 8 mg/mL Male mice aged 6 months were used. 30 total animals were used with 10 animals in each group and 3 groups total. Groups were separated according to the following parameters.
(§1) Mice were weighed and randomized into groups. All the test formulations were freshly administered to respective animals of each group as per body weight. Basal behavior of the animals was recorded and analyzed in open field, Y-Maze, and EPM. Post basal behavior, animals were treated with compound I-16 for the duration of 3 months (i.e., from 6 months until 9 months). During the treatment duration, animals were subjected to different behavioral tests such as OFT, Y-maze, and EPM at 7, 8 and 9 months. At the end of experiments (i.e., at 9 months) animals were subjected to Morris water maze test.

Tg2576 AD Disease Mice [2] = experiment: Tg2576 study: elevated plus maze; assay type: in vivo; conditions: for Elevated Plus Maze time spent in Closed arms / Elevated Plus Maze time spent in Open arms: G3 Tg2576 mice
Method: as §1
Animals were subjected to elevated plus maze to evaluate anxiety-like behavior. Animals were placed in the centre of the arena with two open and two closed arms facing towards closed arms and allowed to explore the arena for a duration of 5 minutes. Animal behavior was video recorded using overhead video recording camera. Total time spent in the closed and open arms were quantified using automated animal tracking software Ethovision XT.

Tg2576 AD Disease Mice [3] = experiment: Tg2576 study: Morris water maze test; assay type: in vivo; conditions: G3 Tg2576 mice, 50 mg/kg then 80 mg/kg from day 36 p.o.; 9th month, probe test
Method: as §1
Animals were subjected to MWM to test spatial working memory. Animals were subjected to habituation, acquisition, and probe trial phase. On day 0, animals were habituated to the Morris water maze tank filled with water for a duration of 90 seconds. During the acquisition phase from day 1 to 4, animals were allowed to swim or search the hidden platform for a duration of 60 seconds. Animals were subjected to a total of 4 trials from 4 different positions each day. On the day of the probe test, animals were allowed to swim for a duration of 60 seconds without platform and time spent in the target quadrant was recorded. During the acquisition phase, latency to reach the platform was calculated.

[4] = 50 mg/kg then 80 mg/kg from day 36 p.o., 8th months
[5] = 50 mg/kg then 80 mg/kg from day 36 p.o., 9th months
[6] = 6th months (Basal, before treatment)

Chain of HDAC4 (P56524 whole entry, species assumed): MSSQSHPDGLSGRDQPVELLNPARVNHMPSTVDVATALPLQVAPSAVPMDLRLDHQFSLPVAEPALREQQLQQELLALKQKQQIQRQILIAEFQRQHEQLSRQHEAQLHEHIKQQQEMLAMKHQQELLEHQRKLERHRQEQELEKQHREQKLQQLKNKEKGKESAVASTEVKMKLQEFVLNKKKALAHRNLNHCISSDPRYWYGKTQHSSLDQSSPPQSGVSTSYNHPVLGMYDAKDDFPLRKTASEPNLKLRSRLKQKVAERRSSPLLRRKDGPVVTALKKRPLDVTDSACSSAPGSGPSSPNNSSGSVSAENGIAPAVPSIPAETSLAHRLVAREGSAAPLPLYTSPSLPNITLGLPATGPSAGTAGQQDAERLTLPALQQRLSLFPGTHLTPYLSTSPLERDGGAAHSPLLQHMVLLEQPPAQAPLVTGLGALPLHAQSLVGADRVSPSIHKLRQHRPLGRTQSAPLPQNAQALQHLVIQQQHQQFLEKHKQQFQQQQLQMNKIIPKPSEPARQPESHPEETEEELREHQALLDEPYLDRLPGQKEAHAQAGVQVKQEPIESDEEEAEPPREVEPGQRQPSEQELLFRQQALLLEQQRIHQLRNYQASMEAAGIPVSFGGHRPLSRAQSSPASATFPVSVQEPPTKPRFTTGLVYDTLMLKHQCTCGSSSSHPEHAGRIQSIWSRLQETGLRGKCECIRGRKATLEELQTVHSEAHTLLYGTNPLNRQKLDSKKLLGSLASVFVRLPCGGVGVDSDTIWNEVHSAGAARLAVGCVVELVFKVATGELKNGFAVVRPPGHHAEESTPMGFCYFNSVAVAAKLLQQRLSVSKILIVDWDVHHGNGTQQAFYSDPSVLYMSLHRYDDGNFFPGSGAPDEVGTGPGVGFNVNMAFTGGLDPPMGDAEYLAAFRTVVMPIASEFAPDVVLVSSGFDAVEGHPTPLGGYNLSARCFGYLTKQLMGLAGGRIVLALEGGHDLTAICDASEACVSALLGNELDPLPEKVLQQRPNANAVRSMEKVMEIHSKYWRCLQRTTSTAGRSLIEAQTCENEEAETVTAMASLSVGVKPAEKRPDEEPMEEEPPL

`CC1CN(Cc2ccc(Nc3nccc(-c4ccc(C(=O)NO)cc4)n3)cc2F)CCO1` (racemic) [Compound I-8, 4-(2-((3-fluoro-4-((2-methylmorpholino)methyl)phenyl)amino)pyrimidin-4-yl)-N-hydroxybenzamide] gave an IC50 (HDAC4) of 11.1 µM and an IC50 (HDAC7) of 12.4 µM.

`C[C@@H]1CN(Cc2ccc(Nc3nccc(-c4ccc(C(=O)NO)cc4)n3)cc2F)CCO1` [Compound I-16, (R)-4-(2-((3-fluoro-4-((2-methylmorpholino)methyl)phenyl)amino)pyrimidin-4-yl)-N-hydroxybenzamide] showed a Body weight ([1]; Day 0) of 28.08 ± 0.84, a Body weight ([1]; Day 4) of 27.31 ± 0.52 and a Body weight ([1]; Day 7) of 26.85 ± 0.66. It also gave a Body weight ([1]; Day 14) of 28.27 ± 0.87, a Body weight ([1]; Day 21) of 27.65 ± 0.86 and a Body weight ([1]; Day 28) of 28.23 ± 1.02. For the same compound, the Body weight ([1]; Day 35) was 28.88 ± 0.55, the Body weight ([1]; Day 42) was 28.35 ± 0.63 and the Body weight ([1]; Day 49) was 28.76 ± 0.76. For the same compound, the Body weight ([1]; Day 56) was 27.77 ± 0.67, the Body weight ([1]; Day 63) was 28.72 ± 1.03 and the Body weight ([1]; Day 70) was 29.54 ± 0.72. It also gave a Body weight ([1]; Day 77) of 29.16 ± 0.71, a Body weight ([1]; Day 84) of 29.14 ± 0.86 and a Body weight ([1]; Day 91) of 29.41 ± 0.78. The “Elevated Plus Maze: time spent in open and closed arms compared to G2 (Tg2576 + vehicle)” value (Tg2576 AD Disease Mice [2]; G3 Tg2576 AD disease mice, 50 mg/kg) was “did not show any significant difference”, the “Elevated Plus Maze time spent in Closed arms” value (Tg2576 AD Disease Mice [2]; 50 mg/kg p.o., 7th months) was 165.48 ± 28.89 and the “Elevated Plus Maze time spent in Open arms” value (Tg2576 AD Disease Mice [2]; 50 mg/kg p.o., 7th months) was 73.82 ± 27.58. For the same compound, the “Elevated Plus Maze time spent in Closed arms” value (Tg2576 AD Disease Mice [2]; [4]) was 245.27 ± 12.41, the “Elevated Plus Maze time spent in Open arms” value (Tg2576 AD Disease Mice [2]; [4]) was 54.73 ± 12.41 and the “Elevated Plus Maze time spent in Closed arms” value (Tg2576 AD Disease Mice [2]; [5]) was 241.46 ± 11.16. The “Elevated Plus Maze time spent in Open arms” value (Tg2576 AD Disease Mice [2]; [5]) was 58.55 ± 11.16, the “Elevated Plus Maze time spent in Closed arms” value (Tg2576 AD Disease Mice [2]; [6]) was 110.86 ± 16.69 and the “Elevated Plus Maze time spent in Open arms” value (Tg2576 AD Disease Mice [2]; [6]) was 82.94 ± 14.23. The “Morris Water Maze time spent in NW (Target Quadrant)” value (Tg2576 AD Disease Mice [3]) was 15.49 ± 1.80 s.
